How the values were obtained:
[1] = as a telomerase activator; cited from earlier work
telomerase enzyme = target: T1, telomerase enzyme (Homo sapiens, UniProt O14746); experiment: Telomerase activation, TELOTAGGG PCR ELISAPLUS kit, HEKn cells; format: cell-based; details: 24-hour incubation
T1 construct: host or cells: HEKn (human primary epidermal keratinocytes)
Method: Telomerase activation tests were performed on selected molecules as follows; For culturing HEKn (Human Primer Epidermal Keratinocyte, ATCC; PCS-200-010) cells, the cell medium containing the components given in Table 2 is prepared and the cells are grown in the Dermal Cell Basal medium (PCS-200-030) supplemented with components in 5% CO2 environment at 37° C.
Telomerase activation was performed using the TELOTAGGG PCR ELISAPLUS kit (Roche; 12013789001, 16× version), a highly sensitive and quantitative method, according to the manufacturer's protocol, as follows:
After application of the selected molecules to HEKn cell lines at the defined dose interval and completion of 24-hour incubation, cells are collected and counted by hemocytometer. 2×10^5 cells are transferred to clean microcentrifuge tubes and then centrifuged at 3000×g for 5 min (at 4° C.). The supernatant is removed and the cells in the pellet are suspended with 200 μl of lysis buffer (Solution 1) and incubated on ice for 30 min. After incubation the lysates are centrifuged at 16,000×g for 20 min (at 4° C.) and the cooled supernatant is transferred to clean microcentrifuge tubes.
PCR is designed for sample group and control group. 25 μl reaction mixture (Solution 2) and 5 μl internal standard solution (Solution 3) are transferred to the PCR tubes for both the positive and negative sample as well as for the sample to be investigated for activation or the prepared master mixture is taken to a 30 μl PCR tube to contain this content. For the samples to be tested, 2 μl of each PCR sample is added from the cell lysate. For the control group, 1 μl of the low or high concentration TS8 control sample (Solution 4 or 5) is transferred to a separate PCR tube. From the lysis buffer (Solution 1), 1 μl is transferred to a separate PCR tube.
For each sample, 10 μl of the denaturing agent (Solution 7) is added to the nuclease-free 96-well plate. 2.5 μl of the amplified product is transferred to the plate and incubated for 10 min at +15 and +25° C. 100 μL Hybridization Buffer T (Solution 8) is added to a portion of the samples, 100 μL Hybridization Buffer IS (Solution 9) is added to the other portion. After homogenization, 100 μl of the reaction mixture is transferred to the MP module coated with streptavidin and the MP module is carefully closed with the special coating paper. After completion of the transfer process, the MP module is shaken at 300 rpm for 2 hours at 37° C. After incubation, the hybridization solutions are removed. Each well is washed 3 times with 250 μl of 1× wash buffer (Solution 10). The prepared anti-DIG-HRP working solution (Solution 11) is added to each of the wells. The MP module is sealed with special coating paper and incubated for 30 min at 15-25° C. with shaking at 300 rpm and the solution is carefully removed from the wells. Each well is washed 5 times in 1× wash buffer (Solution 10). From room temperature TMB substrate solution (Solution 13), 100 μl is added to each well. The MP module is covered with special coating paper and incubated at 15-25° C. for 10-20 minutes at 300 rpm with shaking. The color change is terminated by adding the post-incubation termination agent (Solution 14). The samples are measured at […] in a microplate reader for 30 min. Compounds showing telomerase activation in the 1.5-fold and higher levels according to DMSO used as a negative control were considered active.

T1 sequence (O14746 whole entry): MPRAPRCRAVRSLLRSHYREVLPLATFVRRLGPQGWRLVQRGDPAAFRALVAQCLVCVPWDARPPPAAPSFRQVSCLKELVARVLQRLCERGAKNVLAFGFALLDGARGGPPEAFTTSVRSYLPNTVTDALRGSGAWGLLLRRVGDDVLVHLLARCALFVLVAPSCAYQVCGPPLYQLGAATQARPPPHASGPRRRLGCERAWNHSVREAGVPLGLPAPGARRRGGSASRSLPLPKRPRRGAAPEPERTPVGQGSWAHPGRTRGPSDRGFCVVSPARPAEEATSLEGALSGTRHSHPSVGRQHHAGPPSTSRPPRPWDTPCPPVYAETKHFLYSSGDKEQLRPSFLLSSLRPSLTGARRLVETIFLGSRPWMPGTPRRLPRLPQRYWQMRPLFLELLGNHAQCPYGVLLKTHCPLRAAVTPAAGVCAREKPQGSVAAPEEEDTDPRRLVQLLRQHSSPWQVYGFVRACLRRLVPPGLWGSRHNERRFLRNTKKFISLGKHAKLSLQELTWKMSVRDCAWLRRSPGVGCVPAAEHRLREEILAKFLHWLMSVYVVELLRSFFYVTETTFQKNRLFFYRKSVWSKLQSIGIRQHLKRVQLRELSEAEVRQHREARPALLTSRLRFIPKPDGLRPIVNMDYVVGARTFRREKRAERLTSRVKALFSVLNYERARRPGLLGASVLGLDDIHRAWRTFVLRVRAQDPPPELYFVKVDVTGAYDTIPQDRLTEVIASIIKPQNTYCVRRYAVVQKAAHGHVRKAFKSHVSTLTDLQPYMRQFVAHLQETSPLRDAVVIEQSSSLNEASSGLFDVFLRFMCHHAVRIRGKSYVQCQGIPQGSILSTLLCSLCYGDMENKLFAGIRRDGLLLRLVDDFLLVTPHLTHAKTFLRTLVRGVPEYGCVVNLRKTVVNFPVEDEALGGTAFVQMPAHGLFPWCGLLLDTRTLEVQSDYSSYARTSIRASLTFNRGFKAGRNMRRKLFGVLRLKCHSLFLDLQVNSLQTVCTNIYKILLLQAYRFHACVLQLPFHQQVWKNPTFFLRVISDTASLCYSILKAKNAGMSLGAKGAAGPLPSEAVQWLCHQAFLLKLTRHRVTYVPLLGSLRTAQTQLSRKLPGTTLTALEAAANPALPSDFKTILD

Compound	bioavailability [1] [%]	Fold increase over negative control (DMSO) (telomerase enzyme; 30 nM) [fold]	Fold increase over negative control (DMSO) (telomerase enzyme; 100 nM) [fold]	Fold increase over negative control (DMSO) (telomerase enzyme; 300 nM) [fold]	Fold increase over negative control (DMSO) (telomerase enzyme; 1000 nM) [fold]	Fold increase over negative control (DMSO) (telomerase enzyme; 2 nM) [fold]	Fold increase over negative control (DMSO) (telomerase enzyme; 10 nM) [fold]	Fold increase over negative control (DMSO) (telomerase enzyme; 50 nM) [fold]	Fold increase over negative control (DMSO) (telomerase enzyme; 0.5 nM) [fold]	Fold increase over negative control (DMSO) (telomerase enzyme; 0.1 nM) [fold]
CC(C)(O)[C@@H]1CC[C@](C)([C@H]2[C@@H](O)C[C@@]3(C)C4C[C@H](O)C5C(C)(C)[C@@H](O)CC[C@@]56C[C@@]46CC[C@]23C)O1 (some centres unmarked) [Cycloastragenol]	5									
CC1(C)C(=O)C[C@H](O)[C@]23C[C@]24CC[C@]2(C)[C@@H]([C@@]5(C)CC[C@@H](C(C)(C)O)O5)[C@@H](O)C[C@@]2(C)C4C[C@H](O)C13 (some centres unmarked) [Molecule 1]		1.73	0.72	0.74	1.2					
CC1(C)C(=O)CC[C@]23C[C@]24CC[C@]2(C)[C@@H]([C@@]5(C)CC[C@@H](C(C)(C)O)O5)[C@@H](O)C[C@@]2(CO)C4C[C@H](O)C13 (some centres unmarked) [Molecule 3]		2.36	0.78	1.24	1.07					
CC(C)(O)[C@@H]1CC[C@](C)([C@H]2[C@@H](O)C[C@@]3(C)C4C[C@H](O)C5C(C)(C)[C@@H](O)CC[C@@]56C[C@@]46C[C@@H](O)[C@]23C)O1 (some centres unmarked) [Molecule 4]				2.13		2.13	2.22	2.4		
CC(C)(O)[C@@H]1CC[C@](C)([C@H]2[C@@H](O)C[C@@]3(C)C4C[C@H](O)C5C(C)(C)[C@@H](O)CC[C@@]56C[C@@]46C[C@H](O)[C@]23C)O1 (some centres unmarked) [Molecule 6]		2.37				10	6.38		9.23	
CC1(C)OC(=O)CC[C@]23C[C@]24CC[C@]2(C)[C@@H]([C@@]5(C)CC[C@@H](C(C)(C)O)O5)[C@@H](O)C[C@@]2(C)C4C[C@H](O)C13 (some centres unmarked) [Molecule 10]		4.6				9.35	9.95		8.43	
CC(C)(O)[C@@H]1CC[C@](C)([C@H]2[C@@H](O)C[C@@]3(C)C4C[C@H](O)[C@@H](C(C)(C)O)[C@@]5(CCC(=O)O)C[C@@]45CC[C@]23C)O1 (some centres unmarked) [Molecule 11]		3.17				1.9	1.73		2.08	
CC1(C)C(=O)CC[C@]23C[C@]24CC[C@]2(C)[C@@H]([C@@]5(C)CC[C@@H](C(C)(C)O)O5)[C@@H](O)C[C@@]2(C)C4C[C@H](O)C13 (some centres unmarked) [Molecule 12]		0.84				2.14	1.78		4.65	
CC(C)(O)[C@@H]1CC[C@](C)([C@H]2[C@@H](O)C[C@@]3(C)C4C[C@H](O)C5C(C)(C)[C@@H](O)CC[C@]5(C)C4=C[C@@H](O)[C@]23C)O1 (some centres unmarked) [Molecule 14]				0.53		2.53	1.62	1.6		
CC(C)(O)[C@@H]1CC[C@](C)([C@H]2[C@@H](O)C[C@@]3(C)C4C[C@H](O)C5C(C)(C)[C@@H](O)CC[C@]5(C)C4=C[C@H](O)[C@]23C)O1 (some centres unmarked) [Molecule 16]						2.78	0.95		2.31	0.98
CC(C)(O)[C@@H]1CC[C@](C)([C@H]2[C@@H](O)C[C@@]3(C)C4C[C@H](O)C5C(C)(C)[C@@H](O)CC[C@]5(C)C4=CC(=O)[C@]23C)O1 (some centres unmarked) [Molecule 17]						1.33	1	1.57	0.42	
CC(C)(O)[C@@H]1CC[C@](C)([C@H]2[C@@H](O)C[C@@]3(C)C4C[C@H](O)[C@@H](C(C)(C)O)[C@](C)(CCC(=O)O)C4=CC[C@]23C)O1 (some centres unmarked) [Molecule 19]		1.93				1.24	11.32		2.65	
C=C(C)[C@@H]1[C@@H](O)CC2C(=CC[C@]3(C)[C@@H]([C@@]4(C)CC[C@@H](C(C)(C)O)O4)[C@@H](O)C[C@@]23C)[C@@]1(C)CCC(=O)O (some centres unmarked) [Molecule 20]		7.86				5.23	6.04		9.01	
CC1(C)C(=O)CC[C@]2(C)C3=CC[C@]4(C)[C@@H]([C@@]5(C)CC[C@@H](C(C)(C)O)O5)[C@@H](O)C[C@@]4(C)C3C[C@H](O)C12 (some centres unmarked) [Molecule 21]		1.18				1.43	1.04		9.25	

Reference: patent US20210369738A1, “PRODUCTION METHOD OF TELOMERASE ACTIVATORS AND TELOMERASE ACTIVATORS OBTAINED BY THIS METHOD” (IZMIR YUKSEK TEKNOLOJI ENSTITUSU, priority 2017, published 2021)
